According to patent US20240092779A1, “USP1 INHIBITORS AND USES THEREOF” (Zentaur Therapeutics USA Inc., priority 2022, published 2024):
In brackets after ≈: the same amount, converted by molar mass.

Assays:
[1] = Solubility in FaSSIF (Fasted State Simulated Intestinal Fluid); format: physicochemical; details: FaSSIF pH 6.5, 25° C.; for solubility at 2 h: kinetic from dmso stock
Description: Solubility in FaSSIF (Fasted State Simulated Intestinal Fluid)
Certain Compounds of the Disclosure were assessed for the apparent solubility in FaSSIF.
0.420 g of NaOH, 3.438 g of NaH2PO4 and 6.186 g of NaCl were dissolved into about 900 mL ultrapure water. The solution was adjusted to the pH of 6.5 with 1N NaOH or 1N HCl. The solution was then diluted with ultrapure water to 1000 mL at room temperature. The resulting solution is used as buffer solution.
2.240 g of FaSSIF Powder was added to about 500 mL of above-mentioned buffer solution. The solution was stirred until powder was completely dissolved. Then the solution was diluted with buffer A to 1000 mL at room temperature. This solution is FaSSIF to be used in the following experiment.
15 μL of stock solution (10 mM) of each sample was placed into their proper 96-well rack. 485 μL of FaSSIF was added into each vial of the cap-less solubility sample plate. One stir stick was added to each vial and the vial was sealed using a molded PTFE/Silicone plug. The solubility sample plate was transferred to the Eppendorf Thermomixer Comfort plate shaker and shaked at 25° C. at 1100 RPM for 2 hours. After completion of the 2 hours, the stir sticks using a big magnet were removed. The samples from the solubility sample plate were transferred into the filter plate. Using the vacuum manifold, all the samples are filtered. Aliquot of 5 μL was taken from filtrate followed by addition of 5 μL DMSO and 490 μL of a mixture of H2O and acetonitrile containing internal standard (1:1).
3 μM Standards solution (STD) was prepared from the 10 mM DMSO STD plate.as following: transferring 6 μL into the remaining empty plate, adding 194 μL of DMSO to that plate to have a STD concentration of 300 μM. From the 300 μM DMSO STD plate, 5 μL solution was transferred into the remaining empty plate. Addition of 5 μL PBS and 490 μL of a mixture of H2O and acetonitrile containing internal standard (1:1) to that plate furnished a final STD concentration of 3 μM STD solution.
The samples are analyzed and quantified against the standard of known concentration using LC/MS/MS, calculating the solubility of the test compound as following (DF means the dilution factor):
[Sample solubility in FsSSIF (04)]=Area Ratio sample×DF sample×[STD]/Area Ratio STD

[2] = Liver microsomal stability (HLM); format: in vitro ADME; details: human liver microsomes 0.5 mg/mL, 1 μM compound, NADPH; for microsomal CLint at 1 μM: human, liver microsomes
Description: Liver Microsomal Stability
Certain Compounds of the Disclosure were assessed for ADME metabolic stability in human liver microsomes (HLM).
Samples were prepared by adding 222.5 μL of a master solution (100 mM phosphate buffer and 0.5 mg/mL liver microsomes (HLM)) and 25 μL of a 10 mM NADPH solution to incubation plates, which were then warmed for 10 min. Each compound was separately dissolved in DMSO to prepare 10 mM stock solutions, which were then diluted to 100 μM with acetonitrile. A reaction was started by adding 2.5 μL of the […] solution of each compound to separate incubation plates such that the final concentration of for each compound in each plate was 1 μM. Aliquots of 30 μL were taken from the reaction solution at 0.5, 5, 15, 30 and 60 minutes. The reaction was stopped by the addition of 5 volumes of cold acetonitrile with IS (100 nM alprazolam, 200 nM caffeine and 100 nM tolbutamide). Aliquot of 100 μL of the supernatant was diluted by 100 μL ultra-pure water, and the mixture was used for LC/MS/MS analysis. Peak areas were determined from extracted ion chromatograms. […]. The percentage of remaining parent was calculated from peak area of test compound or PC. The slope value, k, is determined by linear regression of the natural logarithm of percent parent remaining vs. incubation time curve. All calculations are carried out using Microsoft Excel.
The in vitro half-life (in vitro t1/2) is determined from the slope value:
Conversion of the in vitro t1/2 (in min) into the in vitro intrinsic clearance (in vitro CLint, (HLM Clint (μL/min/mg proteins))) is done using the following equation: […]
A: HLM Clint <10 μL/min/mg; B: 10 μL/min/mg≤HLM Clint <50 μL/min/mg; C: HLM Clint ≥50 μL/min/mg.

Row | solubility at 2 h [1] [µM] | microsomal CLint at 1 μM [2] [µL/min/mg] | Solubility in FaSSIF(μM) ([1]; 2 hours) | HLM Clint (μL/min/mg) [2] | Structure (SMILES)
1 | 10 to 100 (≈ 6.07 to 60.7 µg/mL) | 10 to 50 | – | – | COc1cc(Cn2c(=O)ccc3cnc(-c4c(OC)ncnc4C4CC4)c(F)c32)ccc1-c1nc(C(F)(F)F)cn1C1CC1 [Compound I-126]
2 | ≥ 100 | < 10 | – | – | COc1ncnc(C2CC2)c1-c1ncc2cc(-c3cnn(C)c3)c(=O)n(Cc3ccc(-c4nc(C(F)(F)F)cn4C4CC4)cc3)c2n1 [Compound I-127]
3 | ≥ 100 | 10 to 50 | – | – | COc1cc(Cn2c(=O)ccc3cnc(-c4c(OC)ncnc4C4CC4)nc32)cc(F)c1-c1nc(C(F)(F)F)cn1C1CC1 [Compound I-53]
4 | ≥ 100 | < 10 | – | – | COc1ncnc(C2CC2)c1-c1ncc2cc(-c3cnn(C)c3)c(=O)n(Cc3ccc(-c4nc(C(F)(F)F)cn4C(C)C)cc3)c2n1 [Compound I-138]
5 | ≥ 100 | < 10 | – | – | COc1ncnc(C2CC2)c1-c1ncc2cc(C3=CCN(C)CC3)c(=O)n(Cc3ccc(-c4nc(C(F)(F)F)cn4C(C)C)cc3)c2n1 [Compound I-106]
6 | ≥ 100 | 10 to 50 | – | – | COc1ncnc(C2CC2)c1-c1ncc2cc(-c3cnn(CCN(C)C)c3)c(=O)n(Cc3ccc(-c4nc(C(F)(F)F)cn4C4CC4)cc3)c2n1 [Compound I-132]
7 | ≥ 100 | < 10 | – | – | COc1ncnc(C2CC2)c1-c1ncc2cc(-c3cn[nH]c3)c(=O)n(Cc3ccc(-c4nc(C(F)(F)F)cn4C4CC4)cc3)c2n1 [Compound I-130]
8 | ≥ 100 | 10 to 50 | – | – | COc1cc(Cn2c(=O)cnc3cnc(-c4c(OC)ncnc4C4CC4)nc32)ccc1-c1nc(C(F)(F)F)cn1C1CC1 [Compound I-125]
9 | ≥ 100 | < 10 | – | – | COCCN1CCC(c2cc3cnc(-c4c(OC)ncnc4C4CC4)nc3n(Cc3ccc(-c4nc(C(F)(F)F)cn4C4CC4)cc3)c2=O)CC1 [Compound I-120]
10 | ≥ 100 | < 10 | – | – | COc1cc(Cn2c(=O)cnc3cnc(-c4c(OC)ncnc4C4CC4)nc32)cc(F)c1-c1nc(C(F)(F)F)cn1C(C)C [Compound I-107]
11 | ≥ 100 | 10 to 50 | – | – | COc1ncnc(OC)c1-c1ncc2ccc(=O)n(Cc3ccc(-c4nc(C(F)(F)F)cn4C4CC4)cc3)c2n1 [Compound I-102]
12 | 10 to 100 (≈ 6.54 to 65.4 µg/mL) | < 10 | – | – | COc1ncnc(C2CC2)c1-c1ncc2c(C)c(-c3cnn(C)c3)c(=O)n(Cc3ccc(-c4nc(C(F)(F)F)cn4C4CC4)cc3)c2n1 [Compound I-128]
13 | ≥ 100 | 10 to 50 | – | – | COc1cc(Cn2c(=O)cnc3cnc(-c4c(OC)ncnc4C4CC4)nc32)ccc1-n1nc(C(F)(F)F)cc1OC [Compound I-123]
14 | ≥ 100 | 10 to 50 | – | – | COc1ncnc(C2CC2)c1-c1ncc2cc(-c3cnn(C4CN(C)C4)c3)c(=O)n(Cc3ccc(-c4nc(C(F)(F)F)cn4C4CC4)cc3)c2n1 [Compound I-137]
15 | < 10 | < 10 | – | – | COc1ncnc(C2CC2)c1-c1ncc2ccc(=O)n(Cc3ccc(-c4nc(C(F)(F)F)cn4C(C)C)cc3)c2n1 [Compound I-4, 2-(4-Cyclopropyl-6-Methoxypyrimidin-5-Yl)-8-({4-[1-Isopropyl-4-(Trifluoromethyl)Imidazol-2-Yl]Phenyl}Methyl)Pyrido[2,3-d]Pyrimidin-7-One]
16 | ≥ 100 | < 10 | – | – | COc1ncnc(C2CC2)c1-c1ncc2cc(C3CCN(C)CC3)c(=O)n(Cc3ccc(-n4nc(C(F)(F)F)cc4C)cc3)c2n1 [Compound I-121]

Row | solubility at 2 h [1] [µM] | microsomal CLint at 1 μM [2] [µL/min/mg] | Solubility in FaSSIF(μM) ([1]; 2 hours) | HLM Clint (μL/min/mg) [2] | Structure (SMILES)
17 | ≥ 100 | 10 to 50 | – | – | COc1ncnc(C2CC2)c1-c1ncc2cc(-c3cnn(C4CCN(C)CC4)c3)c(=O)n(Cc3ccc(-c4nc(C(F)(F)F)cn4C4CC4)cc3)c2n1 [Compound I-143]
18 | 10 to 100 (≈ 6 to 60 µg/mL) | 10 to 50 | – | – | COc1cc(Cn2c(=O)ccc3cnc(-c4c(OC)ncnc4OC)nc32)cc(F)c1-c1nc(C(F)(F)F)cn1C(C)C [Compound I-113]
19 | < 10 | < 10 | – | – | COc1ncnc(C2CC2)c1-c1ncc2ccc(=O)n(Cc3ccc(-n4nc(C(F)(F)F)cc4OC)cc3)c2n1 [Compound I-110]
20 | ≥ 100 | 10 to 50 | – | – | COc1ncnc(C2CC2)c1-c1ncc2nc(N3CCN(C)CC3)c(=O)n(Cc3ccc(-c4nc(C(F)(F)F)cn4C4CC4)cc3)c2n1 [Compound I-97]
21 | ≥ 100 | < 10 | – | – | COc1ncnc(C2CC2)c1-c1ncc2cc(-c3ncccn3)c(=O)n(Cc3ccc(-c4nc(C(F)(F)F)cn4C4CC4)cc3)c2n1 [Compound I-145]
22 | ≥ 100 | < 10 | – | – | COc1ncnc(C2CC2)c1-c1ncc2cc(-c3cnc(C)nc3)c(=O)n(Cc3ccc(-c4nc(C(F)(F)F)cn4C4CC4)cc3)c2n1 [Compound I-140]
23 | < 10 | 10 to 50 | – | – | COc1ncnc(C2CC2)c1-c1ncc2cc(-c3cn(C)c(C)n3)c(=O)n(Cc3ccc(-c4nc(C(F)(F)F)cn4C4CC4)cc3)c2n1 [Compound I-144]
24 | – | – | C (Solubility ≥100 μN) | A (HLM Clint <10 μL/min/mg) | COc1cc(Cn2c(=O)cnc3cnc(-c4c(OC)ncnc4C4CC4)nc32)ccc1-c1nc(C(F)(F)F)cn1C(C)C [Compound I-119]
25 | < 10 | 10 to 50 | – | – | COc1ncnc(C2CC2)c1-c1ncc2ccc(=O)n(Cc3ccc(-c4nc(C(F)(F)F)cn4C(C)C)c(F)c3OC)c2n1 [Compound I-23, 2-(4-cyclopropyl-6-methoxypyrimidin-5-yl)-8-({3-fluoro-4-[1-isopropyl-4-(trifluoromethyl)imidazol-2-yl]-2-methoxyphenyl}methyl)pyrido[2,3-d]pyrimidin-7-one]
26 | ≥ 100 | < 10 | – | – | COc1ncnc(C2CC2)c1-c1ncc2cc(-c3cccnc3)c(=O)n(Cc3ccc(-c4nc(C(F)(F)F)cn4C4CC4)cc3)c2n1 [Compound I-139]
27 | ≥ 100 | < 10 | – | – | COc1ncnc(C2CC2)c1-c1ncc2cc(C(C)(C)O)c(=O)n(Cc3ccc(-c4nc(C(F)(F)F)cn4C4CC4)cc3)c2n1 [Compound I-109]
28 | 10 to 100 (≈ 5.8 to 58 µg/mL) | < 10 | – | – | COc1cc(Cn2c(=O)ccc3cnc(-c4c(OC)ncnc4C4CC4)nc32)ccc1-n1nc(C(F)(F)F)cc1OC [Compound I-122]
29 | ≥ 100 | 10 to 50 | – | – | COc1cc(Cn2c(=O)ccc3cnc(-c4c(OC)ncnc4C4CC4)nc32)cc(F)c1-c1nc(C(F)(F)F)cn1C(C)C [Compound I-22, 2-(4-cyclopropyl-6-methoxypyrimidin-5-yl)-8-({3-fluoro-4-[1-isopropyl-4-(trifluoromethyl)imidazol-2-yl]-5-methoxyphenyl}methyl)pyrido[2,3-d]pyrimidin-7-one]
30 | < 10 | < 10 | – | – | O=c1ccc2cnc(-c3c(OC(F)F)ncnc3C3CC3)nc2n1Cc1ccc(-c2nc(C(F)(F)F)cn2C2CC2)cc1 [Compound I-103]
31 | ≥ 100 | 10 to 50 | – | – | COc1cc(Cn2c(=O)cnc3cnc(-c4c(OC)ncnc4C4CC4)nc32)ccc1-c1nc(C(F)(F)F)cn1C(C)C [Compound I-118]
